# Measured values published in ChEMBL document CHEMBL4680282, “Repurposing of Drugs-The Ketamine Story” (J Med Chem, 2020).
# What was measured:
# Glutamate NMDA receptor [1] = test: Displacement of [3H]-MK801 from NMDA receptor in rat brain membranes; assay type: cell membranes, Membrane
# Glutamate NMDA receptor [2] = test: Displacement of [3H]-MK801 from NMDA receptor in rat brain homogenate; assay type: tissue-based
# [3] = Cmax in mouse brain at 10 mg/kg, ip measured after 10 mins; assay type: ADME, organism-based; parameters: route intraperitoneal, time 10 min, dose 10 mg/kg; conditions: in vivo
# [4] = molecular target: Glutamate [NMDA] receptor; test: Displacement of [3H]-MK801 from NMDA receptor in human cortex incubated for 2 hrs in presence of Mg2+ by scintillation counting method; assay type: tissue-based
# [5] = Aqueous solubility of the compound; assay type: physicochemical
# [6] = Displacement of [3H]-MK801 from NMDA receptor in Dunkin-Hartley guinea pig brain homogenate incubated for 45 mins by liquid scintillation spectrometry; assay type: tissue-based, Cavia porcellus
# [7] = Displacement of [3H]-MK801 from NMDA receptor in dog brain homogenate incubated for 45 mins by liquid scintillation spectrometry; assay type: tissue-based, Canis lupus familiaris
# Homo sapiens [8] = test: Anesthetic activity in IN dosed human assessed as time duration for onset of action; assay type: functional
# Glutamate NMDA receptor [9] = test: Displacement of [3H]-TCP from NMDA receptor in rat brain membranes incubated for 45 mins in presence of Mg2+ by scintillation counting method; assay type: cell membranes, Membrane
# Glutamate NMDA receptor [10] = test: Displacement of [3H]-MK801 from NMDA receptor in rat striatum incubated for 2 hrs in presence of Mg2+ by scintillation counting method; assay type: tissue-based
# [11] = molecular target: Glutamate NMDA receptor; Grin1/Grin2a (Rattus norvegicus, UniProt P35439+Q00959); test: Displacement of [3H]-MK801 from rat brain GluN1/GluN2A expressed in HEK293 cells; assay type: cell-based
# [12] = Elimination half life in human; assay type: ADME; conditions: read-out: beta t1/2 (converted)
# [13] = Elimination half life in Wistar rat at 20 mg/kg, iv by LC-MS analysis; assay type: ADME, organism-based; conditions: in vivo, read-out: beta t1/2 (converted)
# Glutamate NMDA receptor [14] = test: Displacement of [3H]-MK801 from NMDA receptor in rat forebrain homogenate incubated for 2 hrs in presence of Mg2+ by liquid scintillation counting method; assay type: tissue-based
# Glutamate NMDA receptor [15] = test: Inhibition of NMDAR-mediated excitatory postsynaptic potential in Sprague-Dawley rat hippocampus CA1 region by electrophysiology; parameters: species or system Brain
# Glutamate NMDA receptor [16] = test: Displacement of [3H]-MK801 from NMDA receptor in Sprague-Dawley rat cortex incubated for 2 hrs in presence of Mg2+ by scintillation counting method; assay type: tissue-based
# [17] = Protein binding in human plasma; assay type: ADME, cell-free; conditions: read-out: PPB (converted)
# [18] = molecular target: Glutamate NMDA receptor; Grin1/Grin2b (Rattus norvegicus, UniProt P35439+Q00960); test: Displacement of [3H]-MK801 from rat brain GluN1/GluN2B expressed in HEK293 cells; assay type: cell-based
# [19] = Bioavailability in REC dosed human; assay type: ADME, organism-based; conditions: in vivo
# Glutamate NMDA receptor [20] = test: Displacement of [3H]-MK801 from NMDA receptor in Sprague-Dawley rat cerebellum by liquid scintillation counting method; assay type: tissue-based
# Homo sapiens [21] = test: Anesthetic activity in po dosed human assessed as time duration for onset of action; assay type: functional
# [22] = Cmax in human at 2 mg/kg, iv measured after 1 mins; assay type: ADME, organism-based; parameters: route intravenous, time 1 min, dose 2 mg/kg; conditions: in vivo
# Glutamate NMDA receptor [23] = test: Displacement of [3H]-MK801 from NMDA receptor in rat whole brain homogenate incubated for 2 hrs in presence of Mg2+ by liquid scintillation counting method; assay type: tissue-based
# [24] = Bioavailability in IN dosed human; assay type: ADME, organism-based; conditions: in vivo, inhaled or intranasal
# Homo sapiens [25] = test: Anesthetic activity in SC dosed human assessed as time duration for onset of action; assay type: functional
# Glutamate NMDA receptor [26] = test: Displacement of [3H]-MK801 from NMDA receptor in rat spinal cord incubated for 45 mins by liquid scintillation spectrometry; assay type: tissue-based
# [27] = Displacement of [3H]-MK801 from NMDA receptor in ICR Harlan mouse brain homogenate incubated for 45 mins by liquid scintillation spectrometry; assay type: tissue-based
# Homo sapiens [28] = test: Anesthetic activity in IM dosed human assessed as time duration for onset of action; assay type: functional
# Glutamate NMDA receptor [29] = test: Displacement of [3H]-MK801 from NMDA receptor in rat brain membranes incubated for 45 mins in presence of Mg2+ by scintillation counting method; assay type: cell membranes, Membrane
# [30] = molecular target: Glutamate NMDA receptor; GRIN1/GRIN2A (Homo sapiens, UniProt Q05586+Q12879); test: Displacement of [3H]-MK801 from human forebrain […] expressed in HEK293 cells by […]; assay type: cell-based
# Glutamate NMDA receptor [31] = test: Displacement of [3H]-MK801 from NMDA receptor in Sprague-Dawley rat brain synaptic membrane incubated for 60 mins by liquid scintillation counting method; assay type: cell membranes
# [32] = Drug elimination in human urine assessed as metabolically unchanged compound; assay type: ADME; conditions: read-out: Drug excretion
# [33] = Bioavailability in iv dosed human; assay type: ADME, organism-based; conditions: in vivo
# Homo sapiens [34] = test: Anesthetic activity in IM dosed human assessed as time duration of action; assay type: functional
# [35] = Bioavailability in SL dosed human; assay type: ADME, organism-based; conditions: in vivo
# Glutamate NMDA receptor [36] = test: Displacement of [3H]-MK801 from NMDA receptor in rat brain membranes incubated for 2 hrs in presence of Mg2+ by radioligand binding assay; assay type: cell membranes, Membrane
# [37] = molecular target: Glutamate [NMDA] receptor; test: Displacement of [3H]-MK801 from NMDA receptor in human frontal cortex in presence of Mg2+ by scintillation counting method; assay type: tissue-based
# [38] = Bioavailability in human at 0.5 mg/kg, IM; assay type: ADME, organism-based; conditions: in vivo
# Glutamate NMDA receptor [39] = test: Displacement of [3H]-MK801 from NMDA receptor in rat brain membranes incubated for 60 mins in presence of Mg2+ by liquid scintillation counting method; assay type: cell membranes, Membrane
# Glutamate NMDA receptor [40] = test: Displacement of [3H]-MK801 from NMDA receptor in Sprague-Dawley rat cerebral cortex by liquid scintillation counting method; assay type: tissue-based
# Homo sapiens [41] = test: Anesthetic activity in po dosed human assessed as time duration of action; assay type: functional
# [42] = Oral bioavailability in human; assay type: ADME, organism-based; conditions: in vivo
# [43] = Displacement of [3H]-MK801 from NMDA receptor in dog cerebral cortex incubated for 45 mins by liquid scintillation spectrometry; assay type: tissue-based, Canis lupus familiaris
# Glutamate NMDA receptor [44] = test: Displacement of [3H]-MK801 from NMDA receptor in rat brain membranes incubated for 2 hrs in presence of Mg2+/glumate/glycine by radioligand binding assay; assay type: cell membranes, Membrane
# [45] = Solubility of the compound in water; assay type: physicochemical
# Glutamate NMDA receptor; Grin1/Grin2a, sequence (Q00959 whole entry, other chains not shown): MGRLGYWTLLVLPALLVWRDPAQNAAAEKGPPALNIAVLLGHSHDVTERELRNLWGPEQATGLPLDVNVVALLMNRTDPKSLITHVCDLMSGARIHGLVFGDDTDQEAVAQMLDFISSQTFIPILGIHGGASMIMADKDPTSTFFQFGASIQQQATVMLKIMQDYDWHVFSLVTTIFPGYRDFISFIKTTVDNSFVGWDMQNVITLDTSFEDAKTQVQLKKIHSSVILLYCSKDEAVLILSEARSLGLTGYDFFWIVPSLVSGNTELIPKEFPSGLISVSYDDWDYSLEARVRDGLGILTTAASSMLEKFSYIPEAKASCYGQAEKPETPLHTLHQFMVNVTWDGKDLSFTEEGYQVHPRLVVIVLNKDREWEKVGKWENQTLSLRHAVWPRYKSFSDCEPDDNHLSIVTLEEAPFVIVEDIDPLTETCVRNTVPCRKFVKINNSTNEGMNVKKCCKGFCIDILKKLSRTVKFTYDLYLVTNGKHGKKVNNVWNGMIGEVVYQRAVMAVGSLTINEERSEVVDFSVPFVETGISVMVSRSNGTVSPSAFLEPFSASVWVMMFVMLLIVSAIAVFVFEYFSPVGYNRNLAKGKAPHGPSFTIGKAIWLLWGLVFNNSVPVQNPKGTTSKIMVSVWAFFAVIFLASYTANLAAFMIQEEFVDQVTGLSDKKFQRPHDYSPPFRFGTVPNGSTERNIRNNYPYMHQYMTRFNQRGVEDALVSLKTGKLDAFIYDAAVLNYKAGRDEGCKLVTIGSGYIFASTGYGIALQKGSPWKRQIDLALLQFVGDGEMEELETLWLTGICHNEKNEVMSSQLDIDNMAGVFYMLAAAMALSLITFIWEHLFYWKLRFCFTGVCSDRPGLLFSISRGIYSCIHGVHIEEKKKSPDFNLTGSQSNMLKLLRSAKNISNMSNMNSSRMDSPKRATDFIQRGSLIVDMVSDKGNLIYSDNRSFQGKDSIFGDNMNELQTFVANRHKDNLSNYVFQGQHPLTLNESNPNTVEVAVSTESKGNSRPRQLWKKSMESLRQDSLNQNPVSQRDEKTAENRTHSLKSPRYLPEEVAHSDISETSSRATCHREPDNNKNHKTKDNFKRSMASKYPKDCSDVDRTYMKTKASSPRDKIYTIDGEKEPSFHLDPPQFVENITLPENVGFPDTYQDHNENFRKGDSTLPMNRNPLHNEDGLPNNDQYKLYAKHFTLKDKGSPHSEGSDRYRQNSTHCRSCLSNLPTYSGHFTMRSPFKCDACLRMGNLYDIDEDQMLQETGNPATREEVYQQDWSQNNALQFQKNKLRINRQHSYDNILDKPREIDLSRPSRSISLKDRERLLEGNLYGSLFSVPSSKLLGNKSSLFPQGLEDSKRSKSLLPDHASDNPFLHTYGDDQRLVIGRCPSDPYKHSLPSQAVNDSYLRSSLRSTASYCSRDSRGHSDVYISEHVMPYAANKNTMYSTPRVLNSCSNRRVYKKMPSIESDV
# Glutamate NMDA receptor; GRIN1/GRIN2A, sequence (Q12879 whole entry, other chains not shown): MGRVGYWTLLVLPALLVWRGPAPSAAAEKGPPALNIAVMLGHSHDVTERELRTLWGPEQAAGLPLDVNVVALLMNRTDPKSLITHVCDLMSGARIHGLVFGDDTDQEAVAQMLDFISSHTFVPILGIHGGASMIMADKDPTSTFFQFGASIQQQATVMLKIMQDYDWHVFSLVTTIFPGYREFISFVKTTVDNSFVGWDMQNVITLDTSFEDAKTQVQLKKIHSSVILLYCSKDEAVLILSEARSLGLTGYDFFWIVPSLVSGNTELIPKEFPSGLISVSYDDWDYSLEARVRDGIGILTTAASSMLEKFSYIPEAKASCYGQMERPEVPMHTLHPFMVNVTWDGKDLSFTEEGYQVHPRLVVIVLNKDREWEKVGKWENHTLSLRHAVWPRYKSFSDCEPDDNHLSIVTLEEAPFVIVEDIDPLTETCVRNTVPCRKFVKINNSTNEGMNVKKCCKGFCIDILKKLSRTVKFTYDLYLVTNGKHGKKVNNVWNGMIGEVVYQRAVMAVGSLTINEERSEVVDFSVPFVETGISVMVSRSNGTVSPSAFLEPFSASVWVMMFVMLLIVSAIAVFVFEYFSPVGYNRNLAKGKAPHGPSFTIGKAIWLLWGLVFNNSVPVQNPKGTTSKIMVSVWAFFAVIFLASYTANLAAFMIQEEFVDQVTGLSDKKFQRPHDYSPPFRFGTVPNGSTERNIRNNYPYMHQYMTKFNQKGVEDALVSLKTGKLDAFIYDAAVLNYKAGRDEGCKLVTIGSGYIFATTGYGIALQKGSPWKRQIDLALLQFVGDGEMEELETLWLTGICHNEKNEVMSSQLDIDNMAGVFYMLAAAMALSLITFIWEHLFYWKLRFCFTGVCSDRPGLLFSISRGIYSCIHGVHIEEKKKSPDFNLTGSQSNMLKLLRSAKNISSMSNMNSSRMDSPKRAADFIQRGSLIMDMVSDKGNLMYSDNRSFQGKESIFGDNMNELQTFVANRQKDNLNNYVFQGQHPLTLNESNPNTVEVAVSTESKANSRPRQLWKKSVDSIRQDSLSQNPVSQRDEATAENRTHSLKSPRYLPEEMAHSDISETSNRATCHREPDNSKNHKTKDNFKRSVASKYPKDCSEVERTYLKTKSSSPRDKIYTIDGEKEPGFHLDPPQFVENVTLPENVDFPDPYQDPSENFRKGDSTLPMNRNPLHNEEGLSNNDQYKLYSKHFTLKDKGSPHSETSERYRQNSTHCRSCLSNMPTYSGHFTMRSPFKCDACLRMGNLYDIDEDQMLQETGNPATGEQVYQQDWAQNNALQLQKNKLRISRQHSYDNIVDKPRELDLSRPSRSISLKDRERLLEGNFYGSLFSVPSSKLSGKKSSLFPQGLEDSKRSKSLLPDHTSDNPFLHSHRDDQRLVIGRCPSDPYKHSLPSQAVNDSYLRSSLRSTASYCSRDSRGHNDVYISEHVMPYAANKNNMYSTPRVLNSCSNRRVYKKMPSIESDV
# Glutamate NMDA receptor; Grin1/Grin2b, sequence (Q00960 whole entry, other chains not shown): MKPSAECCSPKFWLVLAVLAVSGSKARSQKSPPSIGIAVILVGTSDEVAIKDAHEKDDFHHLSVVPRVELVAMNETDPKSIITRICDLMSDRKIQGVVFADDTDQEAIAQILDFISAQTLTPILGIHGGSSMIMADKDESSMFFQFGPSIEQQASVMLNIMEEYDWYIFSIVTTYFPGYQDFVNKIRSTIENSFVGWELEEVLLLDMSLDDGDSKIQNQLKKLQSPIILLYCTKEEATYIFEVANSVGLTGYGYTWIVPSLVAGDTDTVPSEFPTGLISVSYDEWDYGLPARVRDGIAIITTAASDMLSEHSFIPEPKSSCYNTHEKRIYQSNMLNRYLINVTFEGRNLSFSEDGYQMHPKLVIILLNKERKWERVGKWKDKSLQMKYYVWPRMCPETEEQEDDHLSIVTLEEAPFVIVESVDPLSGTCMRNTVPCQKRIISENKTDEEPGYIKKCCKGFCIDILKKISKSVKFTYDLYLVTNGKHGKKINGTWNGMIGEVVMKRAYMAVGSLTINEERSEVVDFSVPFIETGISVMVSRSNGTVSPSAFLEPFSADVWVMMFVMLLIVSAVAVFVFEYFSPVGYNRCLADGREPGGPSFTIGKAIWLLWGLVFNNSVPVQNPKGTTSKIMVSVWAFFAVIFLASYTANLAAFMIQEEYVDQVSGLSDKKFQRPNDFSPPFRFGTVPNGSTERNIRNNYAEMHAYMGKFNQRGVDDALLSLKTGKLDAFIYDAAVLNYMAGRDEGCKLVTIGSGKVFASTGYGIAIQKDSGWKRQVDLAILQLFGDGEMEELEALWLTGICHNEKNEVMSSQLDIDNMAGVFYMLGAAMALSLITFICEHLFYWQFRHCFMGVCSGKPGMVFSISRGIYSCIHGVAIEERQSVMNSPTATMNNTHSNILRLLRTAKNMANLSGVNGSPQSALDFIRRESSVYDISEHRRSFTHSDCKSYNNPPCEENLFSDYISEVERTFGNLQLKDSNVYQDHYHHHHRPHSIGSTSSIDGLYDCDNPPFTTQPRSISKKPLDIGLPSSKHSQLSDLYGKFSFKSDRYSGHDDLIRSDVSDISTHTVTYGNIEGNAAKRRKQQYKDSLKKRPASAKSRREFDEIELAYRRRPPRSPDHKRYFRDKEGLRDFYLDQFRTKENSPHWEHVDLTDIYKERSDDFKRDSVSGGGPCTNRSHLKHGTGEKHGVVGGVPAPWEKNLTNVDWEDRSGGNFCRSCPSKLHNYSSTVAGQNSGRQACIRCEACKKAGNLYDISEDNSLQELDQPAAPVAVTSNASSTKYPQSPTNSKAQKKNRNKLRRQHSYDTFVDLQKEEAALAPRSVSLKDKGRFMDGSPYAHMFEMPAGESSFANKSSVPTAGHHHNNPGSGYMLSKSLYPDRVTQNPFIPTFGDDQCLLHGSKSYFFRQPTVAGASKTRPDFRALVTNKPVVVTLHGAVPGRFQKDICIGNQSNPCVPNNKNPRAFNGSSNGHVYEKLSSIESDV
smiles,measurement,setting,value
CN[C@@]1(c2ccccc2Cl)CCCCC1=O,Ki,Glutamate NMDA receptor [1],2570 nM
same,Ki,Glutamate NMDA receptor [2],1400 nM
same,Cmax,[3],7.93 µmol/kg
CN[C@]1(c2ccccc2Cl)CCCCC1=O [ESKETAMINE],Ki,Glutamate NMDA receptor [1],690 nM
same,Ki,Glutamate NMDA receptor [2],300 nM
same,Cmax,[3],7.33 µmol/kg
CNC1(c2ccccc2Cl)CCCCC1=O (stereo not given) [KETAMINE],Ki,[4],180 nM
same,solubility,[5],0.046 mg/mL
same,Ki,[6],180 nM
same,Ki,[7],180 nM
same,Time,Homo sapiens [8],5 min
same,Ki,Glutamate NMDA receptor [9],180 nM
same,Ki,Glutamate NMDA receptor [10],180 nM
same,Ki,[11],180 nM
same,half-life,[12],2 h
same,half-life,[13],8 h
same,Ki,Glutamate NMDA receptor [14],180 nM
same,IC50,Glutamate NMDA receptor [15],10000 nM
same,Ki,Glutamate NMDA receptor [16],180 nM
same,fraction unbound,[17],0.88
same,Ki,[18],180 nM
same,bioavailability,[19],11%
same,Ki,Glutamate NMDA receptor [20],180 nM
same,Time,Homo sapiens [21],15 min
same,Cmax,[22],7.6 µM
same,Ki,Glutamate NMDA receptor [23],180 nM
same,bioavailability,[24],8%
same,Time,Homo sapiens [25],15 min
same,Ki,Glutamate NMDA receptor [26],180 nM
same,Ki,[27],180 nM
same,Time,Homo sapiens [28],1 min
same,Ki,Glutamate NMDA receptor [29],180 nM
same,Ki,[30],180 nM
same,Ki,Glutamate NMDA receptor [31],180 nM
same,dose excreted,[32],2%
same,F,[33],100%
same,Time,Homo sapiens [34],0.5 h
same,bioavailability,[35],24%
same,Ki,Glutamate NMDA receptor [36],180 nM
same,Ki,[37],180 nM
same,bioavailability,[38],93%
same,Ki,Glutamate NMDA receptor [39],180 nM
same,Ki,Glutamate NMDA receptor [40],180 nM
same,Time,Homo sapiens [41],4 h
same,bioavailability,[42],17%
same,Ki,[43],180 nM
same,Ki,Glutamate NMDA receptor [44],180 nM
N[C@]1(c2ccccc2Cl)CCCCC1=O,Ki,Glutamate NMDA receptor [1],2250 nM
same,Ki,Glutamate NMDA receptor [2],1700 nM
CNC1(c2ccccc2Cl)CCCCC1=O.Cl (stereo not given) [KETAMINE HYDROCHLORIDE],solubility,[45],200 mg/mL
